What was measured:
Format in all cases: physicochemical
[1] = fragmentation rate constant kfr by laser flash photolysis; conditions: Table B; CH3CN/H2O (4:1)
Excerpt: The kinetics of the bond cleavage or fragmentation reaction can be measured by conventional laser flash photolysis. […] The specific experimental apparatus we used to measure fragmentation rate constants and radical oxidation potentials is described in detail below.
(b) Fragmentation Rate Constant Determination
These absorptions were used to determine the kinetics of the fragmentation reactions of the radical cations of the X-Y. Excitation of 9,10-dicyanoanthracene (DCA) in the presence of biphenyl and the X-Y donor, as described above, results in the formation of the DCA^.cndot.- and the X-Y^.cndot.+. By using a concentration of X-Y of ca. 10^-2 M, the X-Y^.cndot.+ can be formed within ca. 20 ns of the laser pulse. […] The monitoring wavelengths used were somewhat different for the different donors, but were mostly around 470-530 nm. […] Alternatively, when the decay rate of the X-Y^.cndot.+ was less than 10^6 s^-1, the solutions were purged with oxygen.
The experiments measuring the fragmentation rate constants were performed in acetonitrile with the addition of 20% water, so that all of the salts could be easily solubilized. Most experiments were performed at room temperature. […] When this happened, the fragmentation rate constants were measured as a function of temperature, and the rate constant at room temperature determined by extrapolation.

[2] = oxidation potential E1 by cyclic voltammetry; conditions: Table A; 80%/20% acetonitrile/water, 0.1M lithium perchlorate, 25° C.
Protocol: Oxidation potentials are well known and can be found, for example, in "Encyclopedia of Electrochemistry of the Elements", Organic Section, Volumes XI-XV, A. Bard and H. Lund (Editors) Marcel Dekker Inc., NY. (1984). E1 can be measured by the technique of cyclic voltammetry. In this technique, the electron donating compound is dissolved in a solution of 80%/20% by volume acetonitrile to water containing 0.1M lithium perchlorate. Oxygen is removed from the solution by passing nitrogen gas through the solution for 10 minutes prior to measurement. A glassy carbon disk is used for the working electrode, a platinum wire is used for the counter electrode, and a saturated calomel electrode (SCE) is used for the reference electrode. Measurement is conducted at 25° C. using a potential sweep rate of 0.1 V/sec. The oxidation potential vs. SCE is taken as the peak potential of the cyclic voltammetric wave.

[3] = oxidation potential E2 of radical X by laser flash photolysis; conditions: Table C; by parent XY compound; < = more negative than
Excerpt: In this technique, the compound X-Y is oxidized by an electron transfer reaction initiated by a short laser pulse. The oxidized form of X-Y then undergoes the bond cleavage reaction to give the radical X^.cndot.. X^.cndot. is then allowed to interact with various electron acceptor compounds of known reduction potential. […] The experimental details are set forth more fully below. The oxidation potentials (E2) for radicals X^.cndot. for typical compounds useful in accordance with our invention are given in Table C. Where only limits on potentials could be determined, the following notation is used: <-0.90 V should be read as "more negative than -0.90 V" and >-0.40 V should be read as "less negative than -0.40 V".
(a) Oxidation Potential of Radical X.cndot.
The laser flash photolysis measurements were performed using a nanosecond pulsed excimer (Questek model 2620, 308 nm, ca. 20 ns, ca. 100 mJ) pumped dye laser (Lambda Physik model FL 3002). The laser dye was DPS (commercially available from Exciton Co.) in p-dioxane (410 nm, ca. 20 ns, ca. 10 mJ). The analyzing light source was a pulsed 150W xenon arc lamp (Osram XBO 150/W). The arc lamp power supply was a PRA model 302 and the pulser was a PRA model M-306. The pulser increased the light output by ca. 100 fold, for a time period of ca. 2-3 ms. The analyzing light was focussed through a small aperture (ca. 1.5 mm) in a cell holder designed to hold 1 cm^2 cuvettes. The laser and analyzing beams irradiated the cell from opposite directions and crossed at a narrow angle (ca. 15°). After leaving the cell, the analyzing light was collimated and focussed onto the slit (1 mm, 4 nm bandpass) of an ISA H-20 monochromator. The light was detected using 5 dynodes of a Hamamatsu model R446 photomultiplier. The output of the photomultiplier tube was terminated into 50 ohm, and captured using a Tektronix DSA-602 digital oscilloscope. The entire experiment is controlled from a personal computer.
The experiments were performed either in acetonitrile, or a mixture of 80% acetonitrile and 20% water. The first singlet excited state of a cyanoanthracene (A), which acted as the electron acceptor, was produced using the nanosecond laser pulse at 410 nm. […] Secondary electron transfer then occurred between B^.cndot.+ and the lower oxidation potential electron donor X-Y, to generate X-Y^.cndot.+ in high yield. For the investigations of the oxidation potentials of the radicals X^.cndot., typically the cyanoanthrancene concentration was ca. 2×10^-5 M to 10^-4 M the biphenyl concentration was ca. 0.1M. The concentration of the X-Y donor was ca. 10^-3 M. The rates of the electron transfer reactions are determined by the concentrations of the substrates. The concentrations used ensured that the A^.cndot.- and the X-Y^.cndot.+ were generated within 100 ns of the laser pulse. The radical ions could be observed directly by means of their visible absorption spectra. The kinetics of the photogenerated radical ions were monitored by observation of the changes in optical density at the appropriate wavelengths.
The reduction potential (Ered) of 9,10-dicyanoanthracene (DCA) is -0.91 V. In a typical experiment, DCA is excited and the initial photo-induced electron transfer from the biphenyl (B) to the DCA forms a DCA^.cndot.-, which is observed at its characteristic absorption maximum (λobs =705 nm), within ca. 20 ns of the laser pulse. Rapid secondary electron transfer occurs from X-Y to B^.cndot.+ to generate X-Y^.cndot.+, which fragments to give X^.cndot.. A growth in absorption is then observed at 705 nm with a time constant of ca. 1 microsecond, due to reduction of a second DCA by the X^.cndot.. The absorption signal with the microsecond growth time is equal to the size of the absorption signal formed within 20 ns.
If the oxidation potential of X^.cndot. is not sufficiently negative to reduce DCA, an estimate of its oxidation potential was obtained by using other cyanoanthracenes as acceptors. […]

Row | SMILES | kfr, Rate Constants for Decarboxylation of Radical Cations [1] | Oxidation Potential of X--Y, E1 [2] | Oxidation Potentials of Radicals (X*), E2 [3]
1 | CN(C)c1ccc(CC(=O)O)cc1 [Compound 1] | ~ 3.0 × 10^5 s^-1 | 0.53 V vs SCE | > -0.5 V
2 | CCN(CC)c1ccc(C(O)C(=O)O)cc1 (centres unmarked) [Compound 2] | – | 0.50 V vs SCE | < -0.9 V
3 | CN(C)c1ccc(C(O)C(=O)O)cc1 (centres unmarked) [Compound 3] | 550000 s⁻¹ | – | –
4 | CCN(CC)c1ccc(C(C)(O)C(=O)O)cc1 (centres unmarked) [Compound 4] | – | 0.49 V vs SCE | –
5 | CN(C)c1ccc(C(C)(O)C(=O)O)cc1 (centres unmarked) [Compound 5] | – | 0.51 V vs SCE | < -0.9 V
6 | O=C(O)COc1ccc(N(CC(=O)O)CC(=O)O)cc1 [Compound 9] | – | 0.38 V vs SCE | –
7 | COc1ccc(N(CC(=O)O)CC(=O)O)cc1 [Compound 10] | 9300 s⁻¹ | 0.38 V vs SCE | < -0.9 V
8 | Cc1ccc(N(CC(=O)O)CC(=O)O)cc1 [Compound 11] | 1.6e+06 s⁻¹ | 0.46 V vs SCE | ~ -0.9 V
9 | O=C(O)CN(CC(=O)O)c1ccc(Cl)cc1 [Compound 12] | – | 0.58 V vs SCE | –
10 | O=C(O)CN(CC(=O)O)c1ccccc1 [Compound 13] | 1.7e+07 s⁻¹ | 0.54 V vs SCE | ~ -0.85 V
11 | CCC(C)c1ccc(N(CC(=O)O)C(C)C(=O)O)cc1 (centres unmarked) [Compound 16] | – | 0.47 V vs SCE | ~ -0.9 V
12 | CC(C(=O)O)N(CC(=O)O)c1ccc(C=O)cc1 (centres unmarked) [Compound 17] | – | 0.74 V vs SCE | –
13 | CC(C(=O)O)N(CC(=O)O)c1ccc(S(=O)(=O)O)cc1 (centres unmarked) [Compound 18] | – | 0.70 V vs SCE | –
14 | CCN(CC)S(=O)(=O)c1ccc(N(CC(=O)O)C(C)C(=O)O)cc1 (centres unmarked) [Compound 19] | – | 0.68 V vs SCE | –
15 | COc1ccc(N(CC(=O)O)CC(=O)O)cc1OC [Compound 21] | 1000 s⁻¹ | 0.36 V vs SCE | –
16 | O=C(O)COc1ccccc1N(CC(=O)O)CC(=O)O [Compound 22] | – | 0.65 V vs SCE | –
17 | COc1ccc(NC(C)C(=O)O)cc1 (centres unmarked) [Compound 23] | – | 0.37 V vs SCE | –
18 | CC(Nc1ccccc1)C(=O)O (centres unmarked) [Compound 24] | – | 0.52 V vs SCE | –
19 | CC(Nc1ccc(C(=O)O)cc1)C(=O)O (centres unmarked) [Compound 25] | – | 0.62 V vs SCE | –
20 | CC(Nc1ccc(Cl)cc1)C(=O)O (centres unmarked) [Compound 26] | – | 0.51 V vs SCE | –
21 | CC(Nc1ccc(C(N)=O)cc1)C(=O)O (centres unmarked) [Compound 27] | – | 0.62 V vs SCE | –
22 | CCOC(=O)c1ccc(NC(C)C(=O)O)cc1 (centres unmarked) [Compound 28] | – | 0.61 V vs SCE | –
23 | O=C(O)CC(Nc1ccccc1)C(=O)O (centres unmarked) [Compound 30] | – | 0.60 V vs SCE | –

Row | SMILES | kfr, Rate Constants for Decarboxylation of Radical Cations [1] | Oxidation Potential of X--Y, E1 [2] | Oxidation Potentials of Radicals (X*), E2 [3]
24 | O=C(O)CC(Nc1ccc(C(=O)O)cc1)C(=O)O (centres unmarked) [Compound 31] | – | 0.61 V vs SCE | –
25 | CC(Nc1cccc(C(N)=O)c1)C(=O)O (centres unmarked) [Compound 32] | – | 0.58 V vs SCE | –
26 | CC(C(=O)O)N(C)c1ccc(C(=O)O)cc1 (centres unmarked) [Compound 33] | – | 0.54 V vs SCE | < -0.9 V
27 | CCN(c1cccc(C(N)=O)c1)C(C)C(=O)O (centres unmarked) [Compound 34] | – | 0.52 V vs SCE | –
28 | CCCCN(c1ccc(C)cc1)C(C)C(=O)O (centres unmarked) [Compound 35] | – | 0.34 V vs SCE | –
29 | CCCCN(c1ccccc1)C(C)C(=O)O (centres unmarked) [Compound 37] | – | 0.43 V vs SCE | –
30 | CCCCN(c1ccc(C(=O)O)cc1)C(C)C(=O)O (centres unmarked) [Compound 38] | – | 0.48 V vs SCE | –
31 | CCCCN(c1ccc(Cl)cc1)C(C)C(=O)O (centres unmarked) [Compound 39] | – | 0.40 V vs SCE | –
32 | CCCCN(c1ccc(C)cc1)C(CC(=O)O)C(=O)O (centres unmarked) [Compound 40] | 1.3e+07 s⁻¹ | 0.38 V vs SCE | –
33 | CCCCN(c1ccccc1)C(CC(=O)O)C(=O)O (centres unmarked) [Compound 41] | – | 0.48 V vs SCE | –
34 | Cc1ccc(N(CCC(=O)O)C[Si](C)(C)C)cc1 [Compound 42] | – | 0.30 V vs SCE | ~ -0.9 V
35 | Cn1cc(C(O)C(=O)O)c2ccccc21 (centres unmarked) [Compound 43] | – | 0.61 V vs SCE | -0.89 V
36 | CC(C(=O)O)c1cn(C)c2ccccc12 (centres unmarked) [Compound 45] | – | 0.64 V vs SCE | -0.56 V
37 | Cn1cc(CC(=O)O)c2ccccc21 [Compound 46] | – | 0.68 V vs SCE | ~ -0.34 V
38 | CC1CC(C)(C)N(CC(=O)O)c2ccccc21 (centres unmarked) [Compound 47] | > 10^7 s^-1 | – | ~ -0.9 V
39 | COc1cc(OC)c(C(O)C(=O)O)cc1OC (centres unmarked) [Compound 48] | – | 0.70 V vs SCE | < -0.9 V
40 | O=C(O)C(O)c1ccccc1 (centres unmarked) [Compound 49] | – | ~ 1.2 V vs SCE | -0.75 V
41 | COc1ccc(C(O)C(=O)O)cc1 (centres unmarked) [Compound 50] | – | ~ 1.05 V vs SCE | < -0.9 V
42 | COc1ccc(C(O)C(=O)O)cc1OC (centres unmarked) [Compound 51] | – | 0.91 V vs SCE | < -0.9 V
43 | CC(C(=O)O)N(c1ccccc1)c1ccccc1 (centres unmarked) [Compound 58] | – | 0.49 V vs SCE | –
44 | CC(C)(Nc1ccccc1)C(=O)O [Compound 59] | – | 0.53 V vs SCE | –
45 | Nc1nc(C(O)C(=O)O)cs1 (centres unmarked) [Compound 60] | – | 0.80 V vs SCE | –

— patent US5747235A, “Silver halide light sensitive emulsion layer having enhanced photographic sensitivity” (Eastman Kodak Company, priority 1996, dated 1998)
